From patent US20260098283A1, “In Vitro Bioproduction of Specific Chain Legnth Poly(hydroxyalkanoate) Monomers” (Kimberly-Clark Worldwide, Inc., priority 2022, published 2026)

Columns and labels:
[1] = test system: fatty acid-CoA ligase QKS23364; assay: substrate chain length preference of fatty acid-CoA ligase QKS23364; assay type: biochemical, Halomonas titanicae; details: for suitability of the enzyme for the fatty acid (optimal / possible / not possible): result in words; for percent activity: substrate chain length preference distribution, percent activity vs. carbon length, enzyme QKS23364
Description: (§1) • Sources: Enzyme sequences were identified by searching the NCBI Protein or Identical Protein Group databases. For this example, it was decided to focus primarily on the thermohalophile Thermobifida halotolerans. Sequences and accession numbers for the enzymes used in this work are listed in Appendix I. All general laboratory chemicals and long chain fatty acids were purchased from Millipore-Sigma Chemical Company (St. Louis, MO). Cloning materials and protein purification supplies were from New England Biolabs (Beverly, MA). • Enzyme cloning: The amino acid sequence for each enzyme was searched for potential signal sequences. If one was present it was removed from the sequence. A histine tag and a TEV protease cleavage sequence were added to the N-ter of each enzyme. This sequence was MHHHHHHENLYFQS to assist in purification (via an NTA-Ni column) and subsequent removal of the hexahistidine tag. Each recombinant enzyme began with an N-ter serine residue as TEV protease cleaves after the glutamine (Q). Each amino acid sequence was back translated to an E. coli codon optimized nucleic acid sequence and was synthesized using standard laboratory gene synthesis techniques. The insert was digested with Nde I and cloned into the similarly digested expression vector pET11d. Final DNA sequences were verified by DNA sequencing. Expression plasmids were used to transform E. coli Origami2 (DE3) for expression. • Protein expression and purification: A single colony was used to inoculate 5.0 mL of LBamp media (80 mg/ml ampicillin concentration). Bacteria were grown for 12 hours at 37° C. and this culture was used to inoculate 500 mL of LBamp media. This culture was grown at 37° C. until the optical density (600 nm) reached 0.4 (typically in 3-5 hours). Protein expression was induced by the addition of IPTG to a final concentration of 1 mM. Cells were grown for 12 hours at 37° C. Cells were harvested by centrifugation at 5,000×g for 20 minutes, and frozen at −80° C. until use (minimal time frozen was 24 hours). Cells were thawed on ice and were resuspended in Buffer A (0.5 M NaCl, 20 mM Tris-HCl, 5 mM imidazole, pH 7.9) (typically 1 mL per gram of cells). Cells were disrupted via two passes through a French Press followed by centrifugation at 30,000×g for 30 minutes. The crude extract was mixed with an equal volume of charged His-Bind resin slurry and the mixture was poured into 5 cm×4.9 cc column. The column was washed with 10 column volumes of wash buffer (0.5 M NaCl, 20 mM Tris-HCl, 60 mM imidazole, pH 7.9) at a flow rate of 0.2 mL/min. Enzyme was eluted from the column with the addition of 3 column volumes of 0.5 M NaCl, 20 mM Tris-HCl, 1.0 M imidazole, pH 7.9. Fractions were collected (1.0 mL). Fractions containing enzyme were pooled after analysis by SDS PAGE. The pooled fractions were applied to a 70 cmp×4.9 cc Sephadex G-75 column (10 mM Tris-HCl, PH 7.5, 1 mM EDTA). Fractions containing homogeneous protein were pooled (after inspection by SDS PAGE) and concentrated to 5 mg/ml via Centricon filters. Enzyme was stored frozen at −20° C. until use. The TRX-histidine tag region was removed from the enzymes using TEV protease. Protein was diluted to 1.0 mg/ml into 10 mM Tris-HCl, pH 7.5, 25 mM NaCl. 100 U of TEV protease was added per mg of enzyme (approximate ratio of 1:100 (w/w). The reaction was allowed to proceed for 16 h at 4° C. The mixture was passed over a charged nickel column. One column volume of eluent was collected representing purified tag-free enzyme. • Enzyme assays: The formation of long-chain fatty acid-CoA was monitored by measuring the amount of pyrophosphate released from the reaction using the MAK 168 pyrophosphate assay kit from Millipore-Sigma Chemical Co (St. Louis, MO). The formation of PHA was monitored by the increase in optical density (650 nm) as a function of time in a Molecular Devices SpectraMax 5 spectrometer. The assay measures the increase in light scattering due to precipitating PHA formed during the reaction. […]

[2] = test system: five-step reaction from long-chain fatty acid CoA to PHA; assay: formation of precipitating PHA, optical density 650 nm, Example 5; assay type: biochemical, Halomonas titanicae; details: Example 5, FIG. 22; fatty acid as starting material
Description: (§2) • Sources: Enzyme sequences were identified by searching the NCBI Protein or Identical Protein Group databases. For this example, it was decided to focus primarily on the thermohalophile Thermobifida halotolerans. Sequences and accession numbers for the enzymes used in this work are listed in Appendix I. All general laboratory chemicals and long chain fatty acids were purchased from Millipore-Sigma Chemical Company (St. Louis, MO). Cloning materials and protein purification supplies were from New England Biolabs (Beverly, MA). • Enzyme cloning: The amino acid sequence for each enzyme was searched for potential signal sequences. If one was present it was removed from the sequence. A histine tag and a TEV protease cleavage sequence were added to the N-ter of each enzyme. This sequence was MHHHHHHENLYFQS to assist in purification (via an NTA-Ni column) and subsequent removal of the hexahistidine tag. Each recombinant enzyme began with an N-ter serine residue as TEV protease cleaves after the glutamine (Q). Each amino acid sequence was back translated to an E. coli codon optimized nucleic acid sequence and was synthesized using standard laboratory gene synthesis techniques. The insert was digested with Nde I and cloned into the similarly digested expression vector pET11d. Final DNA sequences were verified by DNA sequencing. […] 100 U of TEV protease was added per mg of enzyme (approximate ratio of 1:100 (w/w). The reaction was allowed to proceed for 16 h at 4° C. The mixture was passed over a charged nickel column. One column volume of eluent was collected representing purified tag-free enzyme. • Enzyme assays: The formation of long-chain fatty acid-CoA was monitored by measuring the amount of pyrophosphate released from the reaction using the MAK 168 pyrophosphate assay kit from Millipore-Sigma Chemical Co (St. Louis, MO). The formation of PHA was monitored by the increase in optical density (650 nm) as a function of time in a Molecular Devices SpectraMax 5 spectrometer. […]

fatty acid-CoA ligase = assay: long-chain fatty acid CoA ligase reaction time course, Example 5; assay type: biochemical, Halomonas titanicae; details: Example 5, FIG. 20/21; 1.0 M NaCl, pH 7.5
Description: as §2

[3] = test system: fatty acid-CoA ligase QKS24074; assay: substrate chain length preference of fatty acid-CoA ligase QKS24074; assay type: biochemical, Halomonas titanicae; details: for suitability of the enzyme for the fatty acid (optimal / possible / not possible): result in words; for percent activity: substrate chain length preference distribution, percent activity vs. carbon length, enzyme QKS24074
Description: as §1

[4] = test system: fatty acid-CoA ligase QKS26753; assay: substrate chain length preference of fatty acid-CoA ligase QKS26753; assay type: biochemical, Halomonas titanicae; details: for suitability of the enzyme for the fatty acid (optimal / possible / not possible): result in words; for percent activity: substrate chain length preference distribution, percent activity vs. carbon length, enzyme QKS26753
Description: as §1

[5] = test system: fatty acid-CoA ligase QKS25406; assay: substrate chain length preference of fatty acid-CoA ligase QKS25406; assay type: biochemical, Halomonas titanicae; details: for suitability of the enzyme for the fatty acid (optimal / possible / not possible): result in words; for percent activity: substrate chain length preference distribution, percent activity vs. carbon length, enzyme QKS25406
Description: as §1

[6] = test system: fatty acid-CoA ligase QKS24113; assay: substrate chain length preference of fatty acid-CoA ligase QKS24113; assay type: biochemical, Halomonas titanicae; details: for suitability of the enzyme for the fatty acid (optimal / possible / not possible): result in words; for percent activity: substrate chain length preference distribution, percent activity vs. carbon length, enzyme QKS24113
Description: as §1

[7] = test system: overall 5-step reaction from long-chain fatty acid CoA to PHA; assay: formation of precipitating PHA, optical density 650 nm, Example 1; assay type: biochemical, Thermobifida halotolerans; details: Example 1, FIG. 8; fatty acid as starting material
Description: as §2, with “sequencing. Expression plasmids were used to transform E. coli Origami2 (DE3) for expression. • Protein expression and purification: A single colony was used to inoculate 5.0 mL of LBamp media (80 mg/ml ampicillin concentration). Bacteria were grown for 12 hours at 37° C. and this culture was used to inoculate 500 mL of LBamp media. This culture was grown at 37° C. until the optical density (600 nm) reached 0.4 (typically in 3-5 hours). Protein expression was induced by the addition of IPTG to a final concentration of 1 mM. Cells were grown for 12 hours at 37° C. Cells were harvested by centrifugation at 5,000×g for 20 minutes, and frozen at −80° C. until use (minimal time frozen was 24 hours).” for “sequencing.”

[8] = test system: long-chain fatty acid CoA ligase; assay: long-chain fatty acid CoA ligase reaction time course, Example 1 (fatty acid loss, pyrophosphate formation); assay type: biochemical, Thermobifida halotolerans; details: Example 1, FIG. 6/7; single fatty acid substrate
Description: as §2, with “sequence.” for “sequence. A histine tag and a TEV protease cleavage sequence were added to the N-ter of each enzyme. This sequence was MHHHHHHENLYFQS to assist in purification (via an NTA-Ni column) and subsequent removal of the hexahistidine tag. Each recombinant enzyme began with an N-ter serine residue as TEV protease cleaves after the glutamine (Q). Each amino acid sequence was back translated to an E. coli codon optimized nucleic acid sequence and was synthesized using standard laboratory gene synthesis techniques. The insert was digested with Nde I and cloned into the similarly digested expression vector pET11d. Final DNA sequences were verified by DNA sequencing.”

Row | suitability of the enzyme for the fatty acid (optimal / possible / not possible) [1] | percent activity [1] | time to completion of the long-chain fatty acid CoA ligase reaction (fatty acid-CoA ligase) | suitability of the enzyme for the fatty acid (optimal / possible / not possible) [3] | percent activity [3] | suitability of the enzyme for the fatty acid (optimal / possible / not possible) [4] | percent activity [4] | suitability of the enzyme for the fatty acid (optimal / possible / not possible) [5] | percent activity [5] | suitability of the enzyme for the fatty acid (optimal / possible / not possible) [6] | percent activity [6] | SMILES | duration of linear formation of precipitating PHA after the lag [2] | duration of linear formation of precipitating PHA after the lag [7] | lag before measurable increase in optical density (650 nm) [7] | time to completion of the long-chain fatty acid CoA ligase reaction [8]
1 | much lower activity | 25.0% | complete within two hours | optimal enzyme | 100% | not possible enzymes | 0.0% | not possible enzymes | 0.0% | not possible enzymes | 0.0% | CCCCCCCC(=O)O [C6, octanoic acid] | 100 min | – | – | –
2 | – | 70.7% | – | – | 100% | – | 0.0% | – | 0.0% | – | 0.0% | CCCCCCCCCC(=O)O [C8] | – | – | – | –
3 | optimal enzymes | 100% | complete within two hours | much lower activity | 21.0% | optimal enzymes | 100% | much lower activity | 11.6% | much lower activity | 5.2% | CCCCCCCCCCCCCC(=O)O [C12, myristic acid] | 100 min | 150 min | approximately 50 minutes | complete within two hours
4 | – | 100% | – | – | 0.0% | – | 100% | – | 30.4% | – | 21.1% | CCCCCCCCCCCCCCCC(=O)O [C14] | – | – | – | –
